In PubChem BioAssay (NCI):
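Where inhibition never reached the appropriate level, the endpoint shown equals the highest concentration tested. Otherwise, values were interpolated linearly from a five-concentration, 48-hour dose response in 96-well plates. TGI is the concentration that stops growth completely.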

Assays:
Assay in all cases: DTP human tumour cell line panel, 48 h
[1] = system: SNB-19 CNS
[2] = system: SF-268 CNS
[3] = system: SK-OV-3 ovarian
[4] = system: DU-145 prostate
[5] = system: SF-539 CNS
[6] = system: SK-MEL-5 melanoma
[7] = system: OVCAR-3 ovarian
[8] = system: SN12C renal
[9] = system: 786-0 renal
[10] = system: RXF 393 renal
[11] = system: A549 NSCLC
[12] = system: T-47D breast
[13] = system: IGROV1 ovarian
[14] = system: SF-295 CNS
[15] = system: NCI-H460 lung
[16] = system: KM12 colon
[17] = system: SK-MEL-28 melanoma
[18] = system: HT29 colon
[19] = system: M14 melanoma
[20] = system: RPMI-8226 leukemia
[21] = system: SW-620 colon
[22] = system: ACHN renal
[23] = system: TK-10 renal
[24] = system: A498 renal
[25] = system: HCC-2998 colon
[26] = system: OVCAR-5 ovarian
[27] = system: LOX IMVI melanoma
[28] = system: EKVX NSCLC
[29] = system: HCT-116 colon
[30] = system: NCI-H23 lung
[31] = system: MALME-3M melanoma
[32] = system: U251 CNS
[33] = system: NCI-H226 lung
[34] = system: MCF7 breast
[35] = system: HOP-62 NSCLC
[36] = system: OVCAR-4 ovarian
[37] = system: HS 578T breast
[38] = system: COLO 205 colon
[39] = system: PC-3 prostate
[40] = system: HL-60(TB) leukemia
[41] = system: NCI/ADR-RES ovarian
[42] = system: BT-549 breast
[43] = system: HCT-15 colon
[44] = system: K-562 leukemia
[45] = system: MOLT-4 leukemia
[46] = system: MDA-MB-435
[47] = system: MDA-MB-231 breast
[48] = system: UACC-62 melanoma
[49] = system: CAKI-1 renal
[50] = system: UACC-257 melanoma
[51] = system: CCRF-CEM leukemia
[52] = system: HOP-92 NSCLC
[53] = system: OVCAR-8 ovarian
[54] = system: UO-31 renal
[55] = system: MDA-N
[56] = system: SK-MEL-2 melanoma
[57] = system: NCI-H522 lung
[58] = system: SNB-75 CNS

CN(C)c1ccc(N=Nc2ccncc2)cc1
TGI [1]: > 100 µM
TGI [2]: > 100 µM
TGI [3]: > 100 µM
TGI [4]: > 100 µM
TGI [5]: > 100 µM
TGI [6]: > 100 µM
TGI [7]: > 100 µM
TGI [8]: > 100 µM
TGI [9]: > 100 µM
TGI [10]: > 100 µM
TGI [11]: > 100 µM
TGI [12]: > 100 µM
TGI [13]: > 100 µM
TGI [14]: > 100 µM
TGI [15]: > 100 µM
TGI [16]: > 100 µM
TGI [17]: > 100 µM
TGI [18]: > 100 µM
TGI [19]: > 100 µM
TGI [20]: > 100 µM
TGI [21]: > 100 µM
TGI [22]: > 100 µM
TGI [23]: > 100 µM
TGI [24]: > 100 µM
TGI [25]: 92.6 µM
TGI [26]: > 100 µM
TGI [27]: > 100 µM
TGI [28]: > 100 µM
TGI [29]: > 100 µM
TGI [30]: > 100 µM
TGI [31]: > 100 µM
TGI [32]: > 100 µM
TGI [33]: > 100 µM
TGI [34]: > 100 µM
TGI [35]: > 100 µM
TGI [36]: > 100 µM
TGI [37]: > 100 µM
TGI [38]: > 100 µM
TGI [39]: > 100 µM
TGI [40]: > 100 µM
TGI [41]: > 100 µM
TGI [42]: > 100 µM
TGI [43]: > 100 µM
TGI [44]: > 100 µM
TGI [45]: > 100 µM
TGI [46]: > 100 µM
TGI [47]: > 100 µM
TGI [48]: > 100 µM
TGI [49]: > 100 µM
TGI [50]: > 100 µM
TGI [51]: > 100 µM
TGI [52]: 98.6 µM
TGI [53]: > 100 µM
TGI [54]: > 100 µM
TGI [55]: > 100 µM

c1ccc(CSCCc2ccncc2)cc1
TGI [1]: > 100 µM
TGI [2]: > 100 µM
TGI [3]: > 100 µM
TGI [4]: > 100 µM
TGI [5]: > 100 µM
TGI [6]: > 100 µM
TGI [7]: > 100 µM
TGI [8]: > 100 µM
TGI [9]: > 100 µM
TGI [10]: > 100 µM
TGI [11]: > 100 µM
TGI [12]: > 100 µM
TGI [13]: > 100 µM
TGI [14]: > 100 µM
TGI [15]: > 100 µM
TGI [16]: > 100 µM
TGI [17]: > 100 µM
TGI [18]: > 100 µM
TGI [19]: > 100 µM
TGI [20]: > 100 µM
TGI [21]: > 100 µM
TGI [22]: > 100 µM
TGI [23]: > 100 µM
TGI [24]: > 100 µM
TGI [25]: > 100 µM
TGI [56]: > 100 µM
TGI [26]: > 100 µM
TGI [27]: > 100 µM
TGI [28]: > 100 µM
TGI [29]: > 100 µM
TGI [30]: > 100 µM
TGI [31]: > 100 µM
TGI [32]: > 100 µM
TGI [33]: > 100 µM
TGI [34]: > 100 µM
TGI [35]: > 100 µM
TGI [36]: > 100 µM
TGI [37]: > 100 µM
TGI [38]: > 100 µM
TGI [39]: > 100 µM
TGI [40]: 89.6 µM
TGI [41]: > 100 µM
TGI [42]: > 100 µM
TGI [43]: > 100 µM
TGI [57]: > 100 µM
TGI [44]: > 100 µM
TGI [45]: > 100 µM
TGI [46]: > 100 µM
TGI [47]: > 100 µM
TGI [48]: > 100 µM
TGI [50]: > 100 µM
TGI [51]: > 100 µM
TGI [52]: > 100 µM
TGI [53]: > 100 µM
TGI [54]: > 100 µM
TGI [55]: > 100 µM

CCN(CC)Cc1sc2nc3ccccc3n2c1-c1ccc(OC)cc1
TGI [1]: > 100 µM
TGI [2]: > 100 µM
TGI [3]: > 100 µM
TGI [4]: > 100 µM
TGI [7]: > 100 µM
TGI [9]: > 100 µM
TGI [10]: 97 µM
TGI [11]: > 100 µM
TGI [13]: > 100 µM
TGI [14]: > 100 µM
TGI [16]: > 100 µM
TGI [17]: > 100 µM
TGI [18]: 40.7 µM
TGI [19]: > 100 µM
TGI [20]: 33.1 µM
TGI [21]: > 100 µM
TGI [22]: > 100 µM
TGI [23]: > 100 µM
TGI [24]: 71.6 µM
TGI [25]: > 100 µM
TGI [56]: > 100 µM
TGI [26]: > 100 µM
TGI [27]: > 100 µM
TGI [28]: 75.1 µM
TGI [29]: > 100 µM
TGI [30]: > 100 µM
TGI [31]: > 100 µM
TGI [32]: > 100 µM
TGI [33]: 71.4 µM
TGI [58]: > 100 µM
TGI [34]: > 100 µM
TGI [35]: > 100 µM
TGI [36]: > 100 µM
TGI [37]: > 100 µM
TGI [38]: 77.3 µM
TGI [39]: > 100 µM
TGI [40]: > 100 µM
TGI [41]: 90.8 µM
TGI [42]: > 100 µM
TGI [43]: > 100 µM
TGI [57]: > 100 µM
TGI [44]: 22.7 µM
TGI [45]: > 100 µM
TGI [46]: 12.9 µM
TGI [47]: > 100 µM
TGI [48]: > 100 µM
TGI [49]: > 100 µM
TGI [50]: > 100 µM
TGI [51]: 67.6 µM
TGI [52]: > 100 µM
TGI [53]: > 100 µM
TGI [54]: > 100 µM
TGI [55]: 7.02 µM

CNc1ccc(N)cc1C(=O)N1CCC[C@H]1CO
TGI [1]: > 100 µM
TGI [2]: > 100 µM
TGI [3]: > 100 µM
TGI [4]: > 100 µM
TGI [5]: > 100 µM
TGI [6]: > 100 µM
TGI [8]: > 100 µM
TGI [9]: > 100 µM
TGI [10]: > 100 µM
TGI [11]: > 100 µM
TGI [12]: > 100 µM
TGI [13]: > 100 µM
TGI [14]: > 100 µM
TGI [16]: > 100 µM
TGI [17]: > 100 µM
TGI [18]: > 100 µM
TGI [19]: > 100 µM
TGI [21]: > 100 µM
TGI [22]: > 100 µM
TGI [23]: > 100 µM
TGI [24]: > 100 µM
TGI [56]: > 100 µM
TGI [26]: > 100 µM
TGI [27]: > 100 µM
TGI [28]: > 100 µM
TGI [29]: > 100 µM
TGI [30]: > 100 µM
TGI [31]: > 100 µM
TGI [32]: > 100 µM
TGI [33]: > 100 µM
TGI [58]: > 100 µM
TGI [34]: > 100 µM
TGI [35]: > 100 µM
TGI [36]: > 100 µM
TGI [37]: > 100 µM
TGI [38]: > 100 µM
TGI [39]: > 100 µM
TGI [40]: > 100 µM
TGI [41]: > 100 µM
TGI [42]: > 100 µM
TGI [43]: > 100 µM
TGI [57]: > 100 µM
TGI [45]: > 100 µM
TGI [46]: > 100 µM
TGI [47]: > 100 µM
TGI [48]: > 100 µM
TGI [49]: > 100 µM
TGI [50]: > 100 µM
TGI [51]: > 100 µM
TGI [53]: > 100 µM
TGI [54]: > 100 µM
TGI [55]: > 100 µM
